Data as given in patent publication US8952024B2, “Herbicidal pyrimidone derivatives” (E I du Pont de Nemours and Company, priority 2009, dated 2015).

Legend:
Assay type in all cases: in vivo
[1] = test system: blackgrass (Alopecurus myosuroides); test: Test B pre-/postemergence plant response; details: for Blackgrass plant response rating (0 to 100 scale): 62 g ai/ha, postemergence, 0 is no effect, 100 is complete control; for Plant response rating, Blackgrass: Postemergence
Method in brief: (§1)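 Compound in solvent + surfactant applied pre-em (loam/sand) or post-em (plants 2–18 cm, peat medium); greenhouse hold 13–15 days; visual 0–100 control score.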

[2] = test system: Surinam grass (Brachiaria decumbens); test: Test B pre-/postemergence plant response; details: for Surinam Grass plant response rating (0 to 100 scale): 62 g ai/ha, postemergence, 0 is no effect, 100 is complete control; for Plant response rating, Surinam Grass: Postemergence
Method in brief: as §1

[3] = test system: ragweed (common ragweed, Ambrosia elatior); test: Test B pre-/postemergence plant response; details: for Ragweed plant response rating (0 to 100 scale): 62 g ai/ha, postemergence, 0 is no effect, 100 is complete control; for Plant response rating, Ragweed: Postemergence
Method in brief: as §1

[4] = test system: cocklebur (Xanthium strumarium); test: Test B pre-/postemergence plant response; details: for Cocklebur plant response rating (0 to 100 scale): 62 g ai/ha, postemergence, 0 is no effect, 100 is complete control; for Plant response rating, Cocklebur: Postemergence
Method in brief: as §1

[5] = test system: corn (Zea mays); test: Test B pre-/postemergence plant response; details: for Corn plant response rating (0 to 100 scale): 62 g ai/ha, postemergence, 0 is no effect, 100 is complete control; for Plant response rating, Corn: Postemergence
Method in brief: as §1

[6] = test system: morningglory (Ipomoea coccinea); test: Test B pre-/postemergence plant response; details: for Morningglory plant response rating (0 to 100 scale): 62 g ai/ha, postemergence, 0 is no effect, 100 is complete control; for Plant response rating, Morningglory: Postemergence
Method in brief: as §1

[7] = test system: soybean (Glycine max); test: Test B pre-/postemergence plant response; details: for Soybean plant response rating (0 to 100 scale): 62 g ai/ha, postemergence, 0 is no effect, 100 is complete control; for Plant response rating, Soybean: Postemergence
Method in brief: as §1

[8] = test system: bermudagrass (Cynodon dactylon); test: Test B pre-/postemergence plant response; details: for Bermudagrass plant response rating (0 to 100 scale): 62 g ai/ha, postemergence, 0 is no effect, 100 is complete control; for Plant response rating, Bermudagrass: Postemergence
Method in brief: as §1

[9] = test system: Italian ryegrass (Lolium multiflorum); test: Test B pre-/postemergence plant response; details: for Ryegrass, Italian plant response rating (0 to 100 scale): 62 g ai/ha, postemergence, 0 is no effect, 100 is complete control; for Plant response rating, Ryegrass, Italian: Postemergence
Method in brief: as §1

[10] = test system: ducksalad (Heteranthera limosa); test: Test B flooded paddy test; details: for Plant response rating, Flood, Ducksalad: 250 g ai/ha, flooded paddy test, visual rating on 0 to 100 scale (0 no effect, 100 complete control) after 13 to 15 days; for Plant response rating, Ducksalad: Flood (flooded paddy test), 13 to 15 days
Method in brief: (§2)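 Ratings are visual, 0–100 (100 = complete control), taken versus untreated controls 13 to 15 days after treatment in the greenhouse. Compound went straight into paddy water held 3 cm above soil, applied to 2-leaf-stage plants of four species.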

[11] = test system: umbrella sedge (Cyperus difformis); test: Test B flooded paddy test; details: for Plant response rating, Flood, Sedge, Umbrella: 250 g ai/ha, flooded paddy test, visual rating on 0 to 100 scale (0 no effect, 100 complete control) after 13 to 15 days; for Plant response rating, Sedge, Umbrella: Flood (flooded paddy test), 13 to 15 days
Method in brief: as §2

[12] = test system: rice (Oryza sativa); test: Test B flooded paddy test; details: for Plant response rating, Flood, Rice: 250 g ai/ha, flooded paddy test, visual rating on 0 to 100 scale (0 no effect, 100 complete control) after 13 to 15 days; for Plant response rating, Rice: Flood (flooded paddy test), 13 to 15 days
Method in brief: as §2

[13] = test system: barnyardgrass (Echinochloa crus-galli); test: Test B flooded paddy test; details: for Plant response rating, Flood, Barnyardgrass: 250 g ai/ha, flooded paddy test, visual rating on 0 to 100 scale (0 no effect, 100 complete control) after 13 to 15 days; for Plant response rating, Barnyardgrass: Flood (flooded paddy test), 13 to 15 days
Method in brief: as §2

[14] = 31 g ai/ha, 0 to 100 scale (0 no effect, 100 complete control)
[15] = 125 g ai/ha, scale 0 to 100 (0 no effect, 100 complete control)
[16] = 250 g ai/ha, scale 0 to 100 (0 no effect, 100 complete control), 13 to 15 days
[17] = 62 g ai/ha, scale of 0 to 100 where 0 is no effect and 100 is complete control
[18] = 125 g ai/ha, scale 0 to 100, 0 is no effect, 100 is complete control
[19] = Flood, 31 g ai/ha, scale 0 to 100 (0 no effect, 100 complete control)

CCCn1c(-c2cccc(Br)c2)ncc(C(=O)C2=C(O)CCCC2=O)c1=O [Compound 141]
Blackgrass plant response rating (0 to 100 scale) ([1]; 13 to 15 days): 5 | Plant response rating, Blackgrass [1, 14]: 5 | Plant response rating, Blackgrass [1, 15]: 10 | Plant response rating, Blackgrass [1, 16]: 25 | Surinam Grass plant response rating (0 to 100 scale) ([2]; 13 to 15 days): 65 | Plant response rating, Surinam Grass [2, 14]: 40 | Plant response rating, Surinam Grass [2, 15]: 70 | Plant response rating, Surinam Grass [2, 16]: 75 | Ragweed plant response rating (0 to 100 scale) ([3]; 13 to 15 days): 75 | Plant response rating, Ragweed [3, 14]: 65 | Plant response rating, Ragweed [3, 15]: 85 | Plant response rating, Ragweed [3, 16]: 95 | Cocklebur plant response rating (0 to 100 scale) ([4]; 13 to 15 days): 65 | Plant response rating, Cocklebur [4, 14]: 40 | Plant response rating, Cocklebur [4, 15]: 95 | Plant response rating, Cocklebur [4, 16]: 100 | Corn plant response rating (0 to 100 scale) ([5]; 13 to 15 days): 45 | Plant response rating, Corn [5, 14]: 0 | Plant response rating, Corn [5, 15]: 45 | Plant response rating, Corn [5, 16]: 45 | Morningglory plant response rating (0 to 100 scale) ([6]; 13 to 15 days): 60 | Plant response rating, Morningglory [6, 14]: 60 | Plant response rating, Morningglory [6, 15]: 60 | Plant response rating, Morningglory [6, 16]: 65 | Soybean plant response rating (0 to 100 scale) ([7]; 13 to 15 days): 70 | Plant response rating, Soybean [7, 14]: 70 | Plant response rating, Soybean [7, 15]: 75 | Plant response rating, Soybean [7, 16]: 90 | Bermudagrass plant response rating (0 to 100 scale) ([8]; 13 to 15 days): 85 | Plant response rating, Bermudagrass [8, 14]: 80 | Plant response rating, Bermudagrass [8, 15]: 85 | Plant response rating, Bermudagrass [8, 16]: 90 | Ryegrass, Italian plant response rating (0 to 100 scale) ([9]; 13 to 15 days): 0 | Plant response rating, Ryegrass, Italian [9, 14]: 0 | Plant response rating, Ryegrass, Italian [9, 15]: 0 | Plant response rating, Ryegrass, Italian [9, 16]: 5 | Plant response rating, Flood, Ducksalad [10]: 85 | Plant response rating, Ducksalad [10, 17]: 75 | Plant response rating, Flood, Sedge, Umbrella [11]: 85 | Plant response rating, Sedge, Umbrella [11, 17]: 80 | Plant response rating, Flood, Rice [12]: 35 | Plant response rating, Rice [12, 17]: 0 | Plant response rating, Flood, Barnyardgrass [13]: 50 | Plant response rating, Barnyardgrass [13, 17]: 20

CCCCn1c(-c2cccc(Cl)c2)ncc(C(=O)C2=C(O)CCCC2=O)c1=O [Compound 146]
Blackgrass plant response rating (0 to 100 scale) ([1]; 13 to 15 days): 30 | Plant response rating, Blackgrass [1, 14]: 5 | Plant response rating, Blackgrass [1, 15]: 35 | Plant response rating, Blackgrass [1, 16]: 50 | Surinam Grass plant response rating (0 to 100 scale) ([2]; 13 to 15 days): 65 | Plant response rating, Surinam Grass [2, 14]: 65 | Plant response rating, Surinam Grass [2, 15]: 75 | Plant response rating, Surinam Grass [2, 16]: 75 | Ragweed plant response rating (0 to 100 scale) ([3]; 13 to 15 days): 80 | Plant response rating, Ragweed [3, 14]: 65 | Plant response rating, Ragweed [3, 15]: 98 | Plant response rating, Ragweed [3, 16]: 98 | Cocklebur plant response rating (0 to 100 scale) ([4]; 13 to 15 days): 25 | Plant response rating, Cocklebur [4, 14]: 10 | Corn plant response rating (0 to 100 scale) ([5]; 13 to 15 days): 5 | Plant response rating, Corn [5, 14]: 0 | Plant response rating, Corn [5, 15]: 20 | Plant response rating, Corn [5, 16]: 35 | Morningglory plant response rating (0 to 100 scale) ([6]; 13 to 15 days): 15 | Plant response rating, Morningglory [6, 14]: 0 | Plant response rating, Morningglory [6, 15]: 85 | Plant response rating, Morningglory [6, 16]: 95 | Soybean plant response rating (0 to 100 scale) ([7]; 13 to 15 days): 85 | Plant response rating, Soybean [7, 14]: 70 | Plant response rating, Soybean [7, 15]: 98 | Plant response rating, Soybean [7, 16]: 100 | Bermudagrass plant response rating (0 to 100 scale) ([8]; 13 to 15 days): 90 | Plant response rating, Bermudagrass [8, 14]: 85 | Plant response rating, Bermudagrass [8, 15]: 100 | Plant response rating, Bermudagrass [8, 16]: 100 | Ryegrass, Italian plant response rating (0 to 100 scale) ([9]; 13 to 15 days): 5 | Plant response rating, Ryegrass, Italian [9, 14]: 5 | Plant response rating, Ryegrass, Italian [9, 15]: 10 | Plant response rating, Ryegrass, Italian [9, 16]: 15 | Plant response rating, Flood, Ducksalad [10]: 100 | Plant response rating, Ducksalad [10, 17]: 60 | Plant response rating, Ducksalad [10, 18]: 80 | Ducksalad plant response rating [10, 19]: 0 | Plant response rating, Flood, Sedge, Umbrella [11]: 90 | Plant response rating, Sedge, Umbrella [11, 17]: 50 | Plant response rating, Sedge, Umbrella [11, 18]: 80 | Sedge, Umbrella plant response rating [11, 19]: 0 | Plant response rating, Flood, Rice [12]: 35 | Plant response rating, Rice [12, 17]: 0 | Plant response rating, Rice [12, 18]: 0 | Rice plant response rating [12, 19]: 0 | Plant response rating, Flood, Barnyardgrass [13]: 30 | Plant response rating, Barnyardgrass [13, 17]: 0 | Plant response rating, Barnyardgrass [13, 18]: 0 | Barnyardgrass plant response rating [13, 19]: 0
